Target: DGKα (Homo sapiens (Human), UniProt P23743)
Experiment: Human DGKα kinase activity inhibition assay (ADP-Glo)
Format: biochemical
Conditions: recombinant full-length human DGKα, 55 μM ATP, 7 μM 1,2-dioleoyl-sn-glycerol, read-out: IC50 values of examples in in vitro human DGKa kinase activity inhibition assays
Outline: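 Recombinant full-length human DGKα (C-terminal FLAG, from insect cells) phosphorylated 1,2-dioleoyl-sn-glycerol presented in octyl-glucopyranoside micelles. ADP formed was quantified by ADP-Glo luminescence. Compounds were added from 100-fold DMSO stocks.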

Chain of DGKα (P23743 other isoform, or with tags, fused parts or gaps): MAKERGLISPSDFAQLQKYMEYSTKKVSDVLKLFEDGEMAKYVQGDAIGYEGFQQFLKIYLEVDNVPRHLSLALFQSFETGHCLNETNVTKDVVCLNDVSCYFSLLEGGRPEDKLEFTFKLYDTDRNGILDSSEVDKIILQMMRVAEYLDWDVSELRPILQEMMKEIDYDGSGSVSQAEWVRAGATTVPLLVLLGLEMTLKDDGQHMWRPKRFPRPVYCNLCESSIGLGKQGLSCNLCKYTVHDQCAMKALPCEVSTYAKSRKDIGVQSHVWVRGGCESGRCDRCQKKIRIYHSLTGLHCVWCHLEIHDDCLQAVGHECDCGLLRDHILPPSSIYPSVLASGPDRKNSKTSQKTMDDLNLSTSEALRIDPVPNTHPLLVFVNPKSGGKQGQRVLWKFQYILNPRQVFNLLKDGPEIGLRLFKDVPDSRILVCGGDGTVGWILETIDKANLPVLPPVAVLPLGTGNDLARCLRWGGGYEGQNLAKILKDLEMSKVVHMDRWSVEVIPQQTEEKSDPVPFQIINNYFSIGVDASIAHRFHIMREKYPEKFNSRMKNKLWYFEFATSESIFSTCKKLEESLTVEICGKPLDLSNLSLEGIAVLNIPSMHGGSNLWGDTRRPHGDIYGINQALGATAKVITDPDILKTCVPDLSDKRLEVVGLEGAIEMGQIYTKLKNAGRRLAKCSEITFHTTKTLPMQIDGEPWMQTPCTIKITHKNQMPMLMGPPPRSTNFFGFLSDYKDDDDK

SMILES | IC50 [nM]
Cc1ccc2oc(C3CCN(c4c(C#N)c(=O)n(C)c5ccc(OCC(F)F)cc45)CC3)nc2c1 [Example 407, 6-(2,2-difluoroethoxy)-1-methyl-4-[4-(5-methyl-1,3-benzoxazol-2-yl)piperidin-1-yl]-2-oxo-1,2-dihydroquinoline-3-carbonitrile] | 48
Cc1ccc2oc(C3CCN(c4c(C#N)c(=O)n(C)c5ccc(OCC6CC6)cc45)CC3)nc2c1 [Example 408, 6-(cyclopropylmethoxy)-1-methyl-4-[4-(5-methyl-1,3-benzoxazol-2-yl)piperidin-1-yl]-2-oxo-1,2-dihydroquinoline-3-carbonitrile] | 15
Cc1ccc2oc(C3CCN(c4c(C#N)c(=O)n(C)c5ccc(C6CCC6)cc45)CC3)nc2c1 [Example 409, 6-cyclobutyl-1-methyl-4-[4-(5-methyl-1,3-benzoxazol-2-yl)piperidin-1-yl]-2-oxo-1,2-dihydroquinoline-3-carbonitrile] | 8.4
Cc1ccc2oc(C3CCN(c4c(C#N)c(=O)n(C)c5ccc(C6CCC6(C)C)cc45)CC3)nc2c1 (stereo not shown) [Example 410, 6-[2,2-dimethylcyclobutyl]-1-methyl-4-[4-(5-methyl-1,3-benzoxazol-2-yl)piperidin-1-yl]-2-oxo-1,2-dihydroquinoline-3-carbonitrile] | 51
C=C(c1ccc2c(c1)c(N1CCC(c3nc4cc(C)ccc4o3)CC1)c(C#N)c(=O)n2C)C(F)(F)F [Example 411, 1-methyl-4-[4-(5-methyl-1,3-benzoxazol-2-yl)piperidin-1-yl]-2-oxo-6-(3,3,3-trifluoroprop-1-en-2-yl)-1,2-dihydroquinoline-3-carbonitrile] | 5.1
Cc1ccc2oc(C3CCN(c4c(C#N)c(=O)n(C)c5ccc(C6(C(F)(F)F)CC6)cc45)CC3)nc2c1 [Example 412, 1-methyl-4-[4-(5-methyl-1,3-benzoxazol-2-yl)piperidin-1-yl]-2-oxo-6-[1-(trifluoromethyl)cyclopropyl]-1,2-dihydroquinoline-3-carbonitrile] | 21
Cc1ccc2oc(C3CCN(c4c(C#N)c(=O)n(C)c5cc(OCC(N)=O)ccc45)CC3)nc2c1 [Example 413, 2-({3-cyano-1-methyl-4-[4-(5-methyl-1,3-benzoxazol-2-yl)piperidin-1-yl]-2-oxo-1,2-dihydroquinolin-7-yl}oxy)acetamide] | 1
Cc1ccc2oc(C3CCN(c4c(C#N)c(=O)n(C)c5cc(OC6CCCOC6)ccc45)CC3)nc2c1 (stereo not shown) [Example 414, 1-methyl-4-[4-(5-methyl-1,3-benzoxazol-2-yl)piperidin-1-yl]-7-{[oxan-3-yl]oxy}-2-oxo-1,2-dihydroquinoline-3-carbonitrile] | 1.3
Cc1ccc2oc(C3CCN(c4c(C#N)c(=O)n(C)c5cc(OCC(=O)O)ccc45)CC3)nc2c1 [Example 416, ({3-cyano-1-methyl-4-[4-(5-methyl-1,3-benzoxazol-2-yl)piperidin-1-yl]-2-oxo-1,2-dihydroquinolin-7-yl}oxy)acetic acid] | 34
Cc1ccc2oc(C3(C)CCN(c4c(C#N)c(=O)n(C)c5cc(NC6CC6)ccc45)CC3)nc2c1 [Example 418, 7-(cyclopropylamino)-1-methyl-4-[4-methyl-4-(5-methyl-1,3-benzoxazol-2-yl)piperidin-1-yl]-2-oxo-1,2-dihydroquinoline-3-carbonitrile] | 1.4
COc1cc2c(cc1C)c(N1CCC(c3nc4cc(C)ccc4o3)CC1)c(C#N)c(=O)n2C [Example 419, 7-methoxy-1,6-dimethyl-4-[4-(5-methyl-1,3-benzoxazol-2-yl)piperidin-1-yl]-2-oxo-1,2-dihydroquinoline-3-carbonitrile] | 4.6
COc1cc2c(cc1Br)c(N1CCC(F)(c3nc4cc(C)ccc4o3)CC1)c(C#N)c(=O)n2C [Example 420, 6-bromo-4-[4-fluoro-4-(5-methyl-1,3-benzoxazol-2-yl)piperidin-1-yl]-7-methoxy-1-methyl-2-oxo-1,2-dihydroquinoline-3-carbonitrile] | 0.6
Cc1ccc2oc(C3CCN(c4c(C#N)c(=O)n(C)c5cc([N+](=O)[O-])c(C)cc45)CC3)nc2c1 [Example 421, 1,6-dimethyl-4-[4-(5-methyl-1,3-benzoxazol-2-yl)piperidin-1-yl]-7-nitro-2-oxo-1,2-dihydroquinoline-3-carbonitrile] | 137
Cc1ccc2oc(C3CCN(c4c(C#N)c(=O)n(C)c5cc(O)c(Br)cc45)CC3)nc2c1 [Example 422, 6-bromo-7-hydroxy-1-methyl-4-[4-(5-methyl-1,3-benzoxazol-2-yl)piperidin-1-yl]-2-oxo-1,2-dihydroquinoline-3-carbonitrile] | 0.7
Cc1ccc2oc(C3(C)CCN(c4c(C#N)c(=O)n(C)c5cc(O)c(Br)cc45)CC3)nc2c1 [Example 423, 6-bromo-7-hydroxy-1-methyl-4-[4-methyl-4-(5-methyl-1,3-benzoxazol-2-yl)piperidin-1-yl]-2-oxo-1,2-dihydroquinoline-3-carbonitrile] | 1
Cc1ccc2oc(C3(C)CCN(c4c(C#N)c(=O)n(C)c5cc(O)c(C#N)cc45)CC3)nc2c1 [Example 426, 7-hydroxy-1-methyl-4-[4-methyl-4-(5-methyl-1,3-benzoxazol-2-yl)piperidin-1-yl]-2-oxo-1,2-dihydroquinoline-3,6-dicarbonitrile] | 13
Cc1ccc2oc(C3CCN(c4c(C#N)c(=O)n(C)c5cc(O)c(C)cc45)CC3)nc2c1 [Example 428, 7-hydroxy-1,6-dimethyl-4-[4-(5-methyl-1,3-benzoxazol-2-yl)piperidin-1-yl]-2-oxo-1,2-dihydroquinoline-3-carbonitrile] | 0.6
Cn1c(=O)c(C#N)c(N2CCC(c3nnc(-c4cccc(C(F)(F)F)c4)o3)CC2)c2cc(Br)ccc21 [Example 435, 6-bromo-1-methyl-2-oxo-4-(4-{5-[3-(trifluoromethyl)phenyl]-1,3,4-oxadiazol-2-yl}piperidin-1-yl)-1,2-dihydroquinoline-3-carbonitrile] | 4.3
COc1ccc2c(c1)c(N1CCC(c3nc(-c4cccc(C)c4)no3)CC1)c(C#N)c(=O)n2C [Example 436, 6-methoxy-1-methyl-4-{4-[3-(3-methylphenyl)-1,2,4-oxadiazol-5-yl]piperidin-1-yl}-2-oxo-1,2-dihydroquinoline-3-carbonitrile] | 32
COc1ccc2c(c1)c(N1CCC(c3nc(-c4ccccc4)no3)CC1)c(C#N)c(=O)n2C [Example 437, 6-methoxy-1-methyl-2-oxo-4-[4-(3-phenyl-1,2,4-oxadiazol-5-yl)piperidin-1-yl]-1,2-dihydroquinoline-3-carbonitrile] | 27
COc1ccc2c(c1)c(N1CCC(c3nc(-c4ccccc4C)no3)CC1)c(C#N)c(=O)n2C [Example 438, 6-methoxy-1-methyl-4-{4-[3-(2-methylphenyl)-1,2,4-oxadiazol-5-yl]piperidin-1-yl}-2-oxo-1,2-dihydroquinoline-3-carbonitrile] | 31
COc1ccc2c(c1)c(N1CCC(c3nnc(-c4ccccc4)o3)CC1)c(C#N)c(=O)n2C [Example 439, 6-methoxy-1-methyl-2-oxo-4-[4-(5-phenyl-1,3,4-oxadiazol-2-yl)piperidin-1-yl]-1,2-dihydroquinoline-3-carbonitrile] | 492
